Test results as given in patent US20050288309A1, “Fungicidal mixtures” (priority 2002, published 2005).

System: Plasmopara viticola
Test: Activity against Peronospora of grapevines caused by Plasmopara viticola (protective spray test on potted vines)
Format: in vivo, cultivar Müller-Thurgau
Details: individual active compound, untreated control 70% infection
Procedure: The active compounds, separately or jointly, were prepared as a 10% emulsion in a mixture of 63% by weight of cyclohexanone and 27% by weight of emulsifier and diluted with water to the desired concentration.
Evaluation was carried out by determining the infected leaf areas in percent. These percentages were converted into efficacies. The efficacy (E) is calculated as follows using Abbot's formula: E=(1α/β)·100 • α corresponds to the fungicidal infection of the treated plants in % and • β corresponds to the fungicidal infection of the untreated (control) plants in %
An efficacy of 0 means that the infection level of the treated plants corresponds to that of the untreated control plants; an efficacy of 100 means that the treated plants were not infected.
The expected efficacies of the mixtures of active compounds are determined using Colby's formula [R. S. Colby, Weeds 15, 20-22 (1967)] and compared with the observed efficacies.
Colby's formula: E=x+y−x·y/100 • E expected efficacy, expressed in % of the untreated control, when using the mixture of the active compounds A and B at the concentrations a and b • x efficacy, expressed in % of the untreated control, when using active compound A at the concentration a • y efficacy, expressed in % of the untreated control, when using active compound B at the concentration b
Leaves of potted vines of the cultivar “Müller-Thurgau” were sprayed to runoff point with an aqueous suspension having the concentration of active compound stated below. The suspension or emulsion was prepared from a stock solution comprising 10% of active compound in a mixture consisting of 70% of cyclohexanone, 20% of wetting agent and 10% of emulsifier. The next day, the undersides of the leaves were inoculated with an aqueous zoospore suspension of Plasmopara viticola. The grapevines were then initially placed in a water-vapor-saturated chamber at 24° C. for 48 hours and then in a greenhouse at 20-30° C. for 5 days. After this period of time, the plants were again placed in a humid chamber for 16 hours to promote sporangiophore eruption. The extent of the development of the disease on the undersides of the leaves was then determined visually.

Structure (SMILES) | Efficacy in % of the untreated control (0.25 ppm in the spray liquor) [%] | Efficacy in % of the untreated control (1 ppm in the spray liquor) [%] | Efficacy in % of the untreated control (4 ppm in the spray liquor) [%]
CC1CCN(c2c(-c3c(F)cc(F)cc3F)c(Cl)nc3ncnn23)CC1 [I, 5-chloro-7-(4-methylpiperidin-1-yl)-6-(2,4,6-trifluorophenyl)-[1,2,4]triazolo[1,5-a]-pyrimidine] | 0 | 0 | 29
COC(=O)N(OC)c1ccccc1COc1ccn(-c2ccc(Cl)cc2)n1 [II-6, pyraclostrobin, reference compound] |  | 29 | 
